This test addresses T1, human T-type channel alpha-1H (CaV 3.2) (Homo sapiens, UniProt O95180).
T1 construct: expressed in transfected cells; host or cells: HEK 293
Description: Ca2+ Influx Assay (cell-based fluorescent, FDSS). The settings on record: HEK 293 cells expressing human CaV 3.2. On the procedure:
Inhibition of T-type calcium channel activity was determined by cell-based flu-orescent Ca^2+ influx assay, in which potassium ionophore was added to decrease resting membrane potential and extra-cellular high-K^+ stimulation was used to modulate the membrane potential of the cell. The changes in fluorescent signal were monitored by the cell imaging technology by Hamamatsu Photonics's Functional Drug Screening System (FDSS).
HEK 293 cells expressing the human T-type channel alpha-1H (CaV 3.2) were maintained in DMEM supplemented with 10% heat-inactivated FBS, 100 units/ml Penicillin, 100 microg/ml Streptomycin, 150 microg/ml Zeocin, 300 microg/ml Geneticin. The cells were grown in a 5% CO2 humidified incubator at 37° C.
• 1. Cells were harvested and seeded in a poly-D-lysine coated black-sided clear bottom 384-well plate at density of 10,000 cells/well at 24 hours prior to assay. • 2. Incubate at 37° C. in 5% CO2. Day Two: • 1. Wash each well with assay buffer (see below) and leave 20 RI using plate washer, ELx-405 Select CW (BIO-TEK). • 2. Add 20 μL of assay buffer containing 6 μM Fluo-4-AM (Molecular Probes) and 0.005% Pluronic F-127 to each well. • 3. Incubate the plate at 37° C. for 1 hour. • 4. Wash each well assay buffer (see below) and leave 20 μl using plate washer, ELx-405 Select CW (BIO-TEK). • 5. Add 10 μl of compound solution into each well by FDSS6000 and leave the plate for 4.5 min, and then add 10 μl of potassium ionophore solution. • 6. Add 20 μl of high-K^+ depolarizing solution (see below) and monitor the change of fluorescent signal.
The IC50 values for compounds of the present invention were determined from 7-point dose-response studies. Curves were generated using the average of duplicate wells for each data point. Finally, the IC50 values are calculated with the best-fit dose curve determined by XLfit.

Consider 26 compounds from patent US9101616B2, “Aryl substituted carboxamide derivatives as calcium or sodium channel blockers” (RaQualia Pharma Inc., priority 2009, dated 2015).

T1 sequence (O95180 whole entry): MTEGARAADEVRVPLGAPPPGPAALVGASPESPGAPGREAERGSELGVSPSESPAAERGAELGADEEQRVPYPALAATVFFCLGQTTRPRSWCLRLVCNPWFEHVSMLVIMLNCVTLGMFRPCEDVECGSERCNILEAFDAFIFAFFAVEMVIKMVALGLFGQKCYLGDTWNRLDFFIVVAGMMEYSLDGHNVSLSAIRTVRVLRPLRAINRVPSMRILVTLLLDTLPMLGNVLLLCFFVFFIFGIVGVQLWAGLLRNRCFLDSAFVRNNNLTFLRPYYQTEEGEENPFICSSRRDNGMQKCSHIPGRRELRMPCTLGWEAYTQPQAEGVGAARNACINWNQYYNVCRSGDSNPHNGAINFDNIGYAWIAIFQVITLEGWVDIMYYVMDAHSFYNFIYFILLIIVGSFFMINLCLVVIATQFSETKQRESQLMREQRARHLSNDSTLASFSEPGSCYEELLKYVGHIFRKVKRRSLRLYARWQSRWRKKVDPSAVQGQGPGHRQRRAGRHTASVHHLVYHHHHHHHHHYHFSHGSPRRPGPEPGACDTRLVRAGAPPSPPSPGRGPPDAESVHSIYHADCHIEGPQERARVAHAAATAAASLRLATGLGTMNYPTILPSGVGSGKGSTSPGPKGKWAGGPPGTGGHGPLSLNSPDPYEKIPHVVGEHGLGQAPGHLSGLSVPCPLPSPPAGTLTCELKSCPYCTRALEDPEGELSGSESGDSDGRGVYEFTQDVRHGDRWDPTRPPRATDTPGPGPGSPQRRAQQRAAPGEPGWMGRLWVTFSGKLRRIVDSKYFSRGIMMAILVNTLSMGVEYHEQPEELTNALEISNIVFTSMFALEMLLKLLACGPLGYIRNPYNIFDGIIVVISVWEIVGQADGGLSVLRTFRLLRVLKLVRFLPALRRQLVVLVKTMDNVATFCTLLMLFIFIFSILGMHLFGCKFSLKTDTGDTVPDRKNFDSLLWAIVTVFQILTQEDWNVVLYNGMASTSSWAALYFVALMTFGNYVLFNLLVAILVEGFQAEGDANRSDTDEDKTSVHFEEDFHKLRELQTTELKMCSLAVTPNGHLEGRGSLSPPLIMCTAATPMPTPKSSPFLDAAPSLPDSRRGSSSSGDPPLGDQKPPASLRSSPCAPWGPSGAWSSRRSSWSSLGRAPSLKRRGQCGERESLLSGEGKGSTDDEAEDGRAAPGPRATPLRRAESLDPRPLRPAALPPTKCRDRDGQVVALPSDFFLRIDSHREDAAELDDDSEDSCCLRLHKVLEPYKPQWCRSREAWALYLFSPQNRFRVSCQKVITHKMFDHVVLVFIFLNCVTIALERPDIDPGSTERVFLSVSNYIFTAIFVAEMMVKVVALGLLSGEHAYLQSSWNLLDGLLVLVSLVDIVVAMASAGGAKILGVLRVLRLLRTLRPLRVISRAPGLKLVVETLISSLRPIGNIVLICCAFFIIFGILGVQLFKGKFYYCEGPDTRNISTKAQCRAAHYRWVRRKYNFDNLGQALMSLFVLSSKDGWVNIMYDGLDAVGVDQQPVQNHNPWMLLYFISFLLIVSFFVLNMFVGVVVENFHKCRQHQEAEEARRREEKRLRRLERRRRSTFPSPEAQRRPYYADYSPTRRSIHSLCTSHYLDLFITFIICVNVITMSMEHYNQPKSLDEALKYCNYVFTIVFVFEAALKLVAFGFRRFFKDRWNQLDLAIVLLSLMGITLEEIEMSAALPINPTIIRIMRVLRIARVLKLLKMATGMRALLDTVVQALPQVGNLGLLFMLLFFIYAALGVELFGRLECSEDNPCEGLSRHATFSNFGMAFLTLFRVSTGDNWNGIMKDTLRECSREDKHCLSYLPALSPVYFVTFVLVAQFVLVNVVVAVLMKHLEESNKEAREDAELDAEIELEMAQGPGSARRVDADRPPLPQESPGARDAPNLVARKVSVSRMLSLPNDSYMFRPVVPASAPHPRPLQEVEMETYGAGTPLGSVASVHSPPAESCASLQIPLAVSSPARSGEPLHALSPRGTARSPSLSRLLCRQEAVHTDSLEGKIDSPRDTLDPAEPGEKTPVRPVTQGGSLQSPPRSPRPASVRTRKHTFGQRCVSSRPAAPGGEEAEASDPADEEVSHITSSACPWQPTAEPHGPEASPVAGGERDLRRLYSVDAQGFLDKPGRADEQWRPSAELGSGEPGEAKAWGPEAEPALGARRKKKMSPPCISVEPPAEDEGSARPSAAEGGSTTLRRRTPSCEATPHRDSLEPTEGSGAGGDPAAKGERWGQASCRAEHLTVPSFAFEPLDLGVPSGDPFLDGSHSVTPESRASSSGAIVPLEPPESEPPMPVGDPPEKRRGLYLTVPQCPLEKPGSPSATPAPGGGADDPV

In the case of `C[C@@H](NC(=O)[C@H]1C[C@@H]1c1c[nH]c2ccccc12)c1ccc(OCC(F)(F)F)cn1` (relative stereo) [Example 133, (1S*,2S*)-2-(1H-indol-3-yl)-N-((R)-1-(5-(2,2,2-trifluoroethoxy)pyridin-2-yl)ethyl)cyclopropanecarboxamide], the IC50 (usually the midpoint of a concentration-inhibition curve) was no more than 300 nM.
Turning to `C[C@@H](NC(=O)[C@@H]1C[C@H]1c1c[nH]c2ccccc12)c1ccc(OCC(F)(F)F)cn1` (relative stereo) [Example 134, (1R*,2R*)-2-(1H-indol-3-yl)-N-((R)-1-(5-(2,2,2-trifluoroethoxy)pyridin-2-yl)ethyl)cyclopropanecarboxamide], the IC50 is no more than 300 nM.
With `C[C@@H](NC(=O)[C@H]1C[C@@H]1c1ccc2cc[nH]c2c1)c1ccc(OCC(F)(F)F)cn1` (relative stereo) [Example 203, (1S*,2S*)-2-(1H-indol-6-yl)-N-((R)-1-(5-(2,2,2-trifluoroethoxy)pyridin-2-yl)ethyl)cyclopropanecarboxamide] the figure was no more than 300 nM; with `C[C@@H](NC(=O)[C@@H]1C[C@H]1c1ccc2cc[nH]c2c1)c1ccc(OCC(F)(F)F)cn1` (relative stereo) [Example 204, (1R*,2R*)-2-(1H-indol-6-yl)-N-((R)-1-(5-(2,2,2-trifluoroethoxy)pyridin-2-yl)ethyl)cyclopropanecarboxamide], no more than 300 nM.
The figure for `C[C@@H](NC(=O)[C@@H]1C[C@H]1c1ccc2ccccc2n1)c1cnc(OCC(F)(F)F)cn1` (relative stereo) [Example 222, (1R*,2R*)-2-(quinolin-2-yl)-N-((R)-1-(5-(2,2,2-trifluoroethoxy)pyrazin-2-yl)ethyl)cyclopropanecarboxamide] is no more than 300 nM.
With `C[C@@H](NC(=O)[C@H]1C[C@@H]1c1cc2ccccc2[nH]1)c1ccc(OCC(F)(F)F)nc1` (relative stereo) [Example 223, (1S*,2S*)-2-(1H-indol-2-yl)-N-((R)-1-(6-(2,2,2-trifluoroethoxy)pyridin-3-yl)ethyl)cyclopropanecarboxamide] the figure was no more than 300 nM.
`C[C@@H](NC(=O)[C@@H]1C[C@H]1c1cc2ccccc2[nH]1)c1ccc(OCC(F)(F)F)nc1` (relative stereo) [Example 224, (1R*,2R*)-2-(1H-indol-2-yl)-N-((R)-1-(6-(2,2,2-trifluoroethoxy)pyridin-3-yl)ethyl)cyclopropanecarboxamide] came in with a half-maximal inhibitory concentration (IC50) of no more than 300 nM.
For the compound `C[C@@H](NC(=O)[C@H]1C[C@@H]1c1cc2ccccc2[nH]1)c1cnc(OCC(F)(F)F)cn1` (relative stereo) [Example 225, (1S*,2S*)-2-(1H-indol-2-yl)-N-((R)-1-(5-(2,2,2-trifluoroethoxy)pyrazin-2-yl)ethyl)cyclopropanecarboxamide], the IC50 is no more than 300 nM.
`C[C@@H](NC(=O)[C@@H]1C[C@H]1c1cc2ccccc2[nH]1)c1cnc(OCC(F)(F)F)cn1` (relative stereo) [Example 226, (1R*,2R*)-2-(1H-indol-2-yl)-N-((R)-1-(5-(2,2,2-trifluoroethoxy)pyrazin-2-yl)ethyl)cyclopropanecarboxamide] returned an IC50 of no more than 300 nM.
`C[C@@H](NC(=O)[C@H]1C[C@@H]1c1ccc2cnn(C)c2c1)c1ccc(OCC(F)(F)F)cn1` (relative stereo) [Example 227, (1S*,2S*)-2-(1-methyl-1H-indazol-6-yl)-N-((R)-1-(5-(2,2,2-trifluoroethoxy)pyridin-2-yl)ethyl)cyclopropanecarboxamide]: the IC50 was no more than 300 nM.
For the compound `C[C@@H](NC(=O)[C@H]1C[C@@H]1c1ccc(OCc2ccccc2)cc1)c1ccc(OCC(F)(F)F)cn1` (relative stereo) [Example 237, (1S*,2S*)-2-(4-(benzyloxy)phenyl)-N-((R)-1-(5-(2,2,2-trifluoroethoxy)pyridin-2-yl)ethyl)cyclopropanecarboxamide], the IC50 was no more than 300 nM.
In the case of `C[C@@H](NC(=O)[C@H]1C[C@@H]1c1ccc(F)cc1Cl)c1ccc(OCC(F)(F)F)cn1` (relative stereo) [Example 246, (1S*,2S*)-2-(2-chloro-4-fluorophenyl)-N-((R)-1-(5-(2,2,2-trifluoroethoxy)pyridin-2-yl)ethyl)cyclopropanecarboxamide], the IC50 was no more than 300 nM.
With `COc1ccc([C@H]2C[C@@H]2C(=O)N[C@H](C)c2ccc(OCC(F)(F)F)cn2)c(F)c1` (relative stereo) [Example 248, (1S*,2S*)-2-(2-fluoro-4-methoxyphenyl)-N-((R)-1-(5-(2,2,2-trifluoroethoxy)pyridin-2-yl)ethyl)cyclopropanecarboxamide] the figure was no more than 300 nM.
Compound `C[C@@H](NC(=O)[C@H]1C[C@@H]1c1c(F)cc(F)cc1F)c1ccc(OCC(F)(F)F)cn1` (relative stereo) [Example 250, (1S*,2S*)-N-((R)-1-(5-(2,2,2-trifluoroethoxy)pyridin-2-yl)ethyl)-2-(2,4,6-trifluorophenyl) cyclopropanecarboxamide] came in with an IC50 of no more than 300 nM.
The figure for `Cc1cccc([C@H]2C[C@@H]2C(=O)N[C@H](C)c2ccc(OCC(F)(F)F)cn2)c1` (relative stereo) [Example 251, (1S*,2S*)-2-m-tolyl-N-((R)-1-(5-(2,2,2-trifluoroethoxy)pyridin-2-yl)ethyl)cyclopropanecarboxamide] is no more than 300 nM; for `C[C@@H](NC(=O)[C@H]1C[C@@H]1c1cc(F)cc(F)c1)c1ccc(OCC(F)(F)F)cn1` (relative stereo) [Example 253, (1S*,2S*)-2-(3,5-difluorophenyl)-N-((R)-1-(5-(2,2,2-trifluoroethoxy)pyridin-2-yl)ethyl)cyclopropanecarboxamide] it is no more than 300 nM.
`COc1cccc([C@H]2C[C@@H]2C(=O)N[C@H](C)c2ccc(OCC(F)(F)F)cn2)c1` (relative stereo) [Example 258, (1S*,2S*)-2-(3-methoxyphenyl)-N-((R)-1-(5-(2,2,2-trifluoroethoxy)pyridin-2-yl)ethyl)cyclopropanecarboxamide] yielded an IC50 of no more than 300 nM.
The figure for `COc1ccc([C@H]2C[C@@H]2C(=O)N[C@H](C)c2ccc(OCC(F)(F)F)cn2)cc1` (relative stereo) [Example 259, (1S*,2S*)-2-(4-methoxyphenyl)-N-((R)-1-(5-(2,2,2-trifluoroethoxy)pyridin-2-yl)ethyl)cyclopropanecarboxamide] is no more than 300 nM; for `C[C@@H](NC(=O)[C@@H]1C[C@H]1c1nc2ccccc2[nH]1)c1ccc(OCC(F)(F)F)cn1` (relative stereo) [Example 260, (1R*,2R*)-2-(1H-benzo[d]imidazol-2-yl)-N-((R)-1-(5-(2,2,2-trifluoroethoxy)pyridin-2-yl)ethyl)cyclopropanecarboxamide] it is no more than 300 nM.
`C[C@@H](NC(=O)[C@H]1C[C@@H]1c1ccc(F)cc1Cl)c1ccc(OCC2CC2)cn1` (relative stereo) [Example 261, (1S*,2S*)-2-(2-chloro-4-fluorophenyl)-N-((R)-1-(5-(cyclopropylmethoxy)pyridin-2-yl)ethyl)cyclopropanecarboxamide] showed an IC50 of no more than 300 nM.
With `COc1ccc([C@H]2C[C@@H]2C(=O)N[C@H](C)c2ccc(OCC3CC3)cn2)c(F)c1` (relative stereo) [Example 263, (1S*,2S*)-N-((R)-1-(5-(cyclopropylmethoxy)pyridin-2-yl)ethyl)-2-(2-fluoro-4-methoxy-phenyl)cyclopropanecarboxamide] the figure was no more than 300 nM.
`C[C@@H](NC(=O)[C@@H]1C[C@H]1c1c(F)cc(F)cc1F)c1ccc(OCC2CC2)cn1` (relative stereo) [Example 266] gave an IC50 of no more than 300 nM.
Turning to `Cc1cccc([C@H]2C[C@@H]2C(=O)N[C@H](C)c2ccc(OCC3CC3)cn2)c1` (relative stereo) [Example 267, (1S*,2S*)-N-((R)-1-(5-(cyclopropylmethoxy)pyridin-2-yl)ethyl)-2-m-tolylcyclopropanecarboxamide], the 50% inhibitory concentration (IC50) is no more than 300 nM.
The figure for `C[C@@H](NC(=O)[C@H]1C[C@@H]1c1ccc(F)cc1Cl)c1cnc(OCC(F)(F)F)cn1` (relative stereo) [Example 268, (1S*,2S*)-2-(2-chloro-4-fluorophenyl)-N-((R)-1-(5-(2,2,2-trifluoroethoxy)pyrazin-2-yl)ethyl)cyclopropanecarboxamide] is no more than 300 nM.
With `COc1ccc([C@H]2C[C@@H]2C(=O)N[C@H](C)c2cnc(OCC(F)(F)F)cn2)c(F)c1` (relative stereo) [Example 270, (1S*,2S*)-2-(2-fluoro-4-methoxyphenyl)-N-((R)-1-(5-(2,2,2-trifluoroethoxy)pyrazin-2-yl)ethyl)cyclopropanecarboxamide] the figure was no more than 300 nM.
Turning to `C[C@@H](NC(=O)[C@H]1C[C@@H]1c1c(F)cc(F)cc1F)c1cnc(OCC(F)(F)F)cn1` (relative stereo) [Example 271, (1S*,2S*)-N-((R)-1-(5-(2,2,2-trifluoroethoxy)pyrazin-2-yl)ethyl)-2-(2,4,6-trifluorophenyl) cyclopropanecarboxamide], the IC50 was no more than 300 nM.
